Test results published in patent US20250115612A1, “CERTAIN 2,5-DIAZABICYCLO[4.2.0]OCTANES AND OCTAHYDROFURO[3,4-B]PYRAZINES AS GLP-1 RECEPTOR MODULATORS” (ASTRAZENECA AB, priority 2021, published 2025).

Key:
GLP-1R = molecular target: T1, GLP-1R (Homo sapiens, UniProt P43220); test: EndoC cAMP accumulation assay (HTRF, EndoC-βH1 cells); format: cell-based; conditions: EndoC-βH1 human pancreatic β cell line
T1 construct: host or cells: EndoC-βH1
Description: EndoC cAMP Accumulation Assay
A HTRF cAMP assay (cAMP Gs dynamic kit; CisoBio Cat #62AM4PEJ) was used to identify agonists of GLP-1R in a pancreatic insulinoma cell line (EndoC-PH1). […] EndoC-βH1 cells have detectable GLP-1R messenger ribonucleic acid (mRNA) as detected by quantitative polymerase chain reaction (qPCR). […] The EndoC-βH1 cell line is a valid model of human beta cells and applicable for screenings to identify novel drug target candidates (Mol. Metab., 2018, 8, 144-157). CisBio HTRF cAMP kits are based on a competitive immunoassay using cryptate-labelled anti-cAMP antibody and d2-labeled cAMP. The detection kit is intended for the direct quantitative determination of cAMP. The specific signal (i.e. energy transfer) is inversely proportional to the concentration of cAMP in the standard or sample. Test compounds (10 mM in DMSO) were diluted into assay buffer (HBSS (Sigma #H8264) supplemented with 25 mM HEPES (Gibco #15630, pH 7.4), 0.1% BSA (Sigma #A3059) and 0.5 mM IBMX (Sigma #I7018) included fresh on the day of the assay) into 96 well U-bottom plates (Greiner #650201). Diluted compounds were transferred to ECHO source polypropelene plates (Labcyte #P-05525) and dose response curves were dispensed acoustically using ECHO 550 into black shallow-well u-bottom 384-well HTRF Assay Plates (Corning 4514).
Cryovials of EndoC-H1 (supplied at 1×10e^7 cells/vial) were used directly for screening. The cryovials and were removed from N2(l) and thawed rapidly in a 37° C. water bath. The cells were resuspended in assay buffer and centrifuged at 300 g for 5 min. Cells were resuspended in assay buffer at the appropriate concentration, typically at 12e5 cells per mL (3000 cells per well, dependent on cell batch) and 2.5 μL diluted cells were added to all wells of destination plate by Multidrop combi reagent dispenser (Thermofisher). The plates were incubated at rt for 30 min. The assay was stopped by adding 2.5 μL anti-cAMP cryptate solution to all wells and 2.5 μL cAMP-d2 solution (both diluted 1:20 in lysis buffer) to columns 1-22 by Combi drop. A volume of 2.5 μL cAMP-d2 solution was added to wells E23 to P24 and 2.5 μL lysis buffer added to wells A23 to D24 by multichannel pipette. The plates were incubated at rt for 1 h and read on an Envision plate reader using excitation wavelength of 320 nm and emission of 590 nm and 660 nm.
Raw data from Envision is converted to % DeltaF according to the manufacturer's instructions. Dose response curves are analysed via 4-Parameter Logistical Analysis and assay plate Z′ values obtained. Samples are graphed as percentage (%) activation plots compared to GIP (1-42, Bachem H-5645) with assay window defined by negative control as basal cell cAMP levels and positive control are defined by maximum GIP (82.5 nM) signal. GLP-1 (7-36 amide, Bachem H-6795) dose response curve was included on all plates.

human GLP-1R receptor = molecular target: T2, human GLP-1R receptor (Homo sapiens, UniProt P43220, L260F); test: CHOK1 GLP-1R cAMP assay (HTRF); format: cell-based; conditions: CHO-K1 cells stably expressing human GLP-1R
T2 construct: expressed in transfected cells; host or cells: CHO-K1 (ATCC CCL-61)
Description: A cell line stably expressing the human GLP-1R receptor (NM_002062.5, including the naturally-occurring variant Leu260Phe) in a CHO-K1 (ATCC® CCL-61™) was used for assay.
GLP-1 receptor mediated agonist activity was determined in a cell-based assay measuring cyclic adenosine monophosphate (cAMP) levels in cells using Homogeneous Time-Resolved Fluorescence (HTRF) cAMP detection kit (CisBio catalog #62AM4PEC, cAMP Gs Dynamic range kit). The cAMP detection method is based on a competitive immunoassay, in which cAMP produced by the cells and cAMP labeled with the dye d2 compete for binding to a Europium-Cryptate-labeled anti-cAMP antibody. The specific HTRF signal is inversely proportional to the concentration of cAMP.
Compounds were added to individual well in 384 well-assay plates (Greiner #784076) using an Echo (LabCyte) dispenser from 10 mM stocks. Varying concentration of compounds were added to wells, and DMSO was used to normalize each well to a volume of 100 nL. A dose response curve of GLP-1(7-36)NH2 (Bachem H-6795) was included in each run. 5 μL of cAMP concentration response standards are applied in specified wells in the assay plates. Cryo-preserved cells are thawed and resuspended in assay buffer pre-heated to 37° C. (20 mM 2-[4-(2-hydroxyethyl)piperazin-1-yl]ethanesulfonic acid (HEPES) pH 7.4, lx Hank's Balanced Salt Solution (HBSS, Life Technologies #14065) supplemented with 0.1% (w/v) bovine serum albumin (Sigma, A-7030)). Cells were centrifuged at 250*g for 5 min at rt, and resuspended in room tempered assay buffer to a final density of 0.16*10^6 cell/mL, to deliver 800 cells/well. 5 μL of assay buffer with 1 mM 3-isobutyl-1-methylxanthin (IBMX; Sigma cat I-7018) was dispensed per well in assay plates using a multidrop combi (Thermo Scientific) subsequently 5 μL of cell suspension was distributed to relevant wells in the assay using a multidrop dispenser. Assay plates were incubated 20 min at rt.
Detection reagents, Europium-Cryptate-labeled anti-cAMP antibody and cAMP labeled with the dye d2, are diluted in lysis buffer, provided by the manufacturer. 5 μL of each detection reagent is supplemented to each assay well using a multidrop dispenser. Assay plates are incubated in the dark for at least one h. The HTRF signal is measured using the HTRF module (excitation: 337 nm, emission A: 665 nm and emission B: 620 nm) in Pherastar FSX (BMG Labtech).
Raw data were converted to pM cAMP using the cAMP standard curve included in each run. Converted data were further analyzed in Genedata Screener (Genedata) and EC50 determinations were made from agonist dose-response curves analyzed with a curve fitting program using a 4-parameter logistic dose response equation (Equation y=A+((B−A)/1+((C/x)^D))) where A is no stimulation, B is full stimulation, C is the EC50 and D is the Hill slope). The percent effect was determined relative to a saturating concentration of a full GLP-1R agonist (GLP-1(7-36)NH2 has 100% effect in this assay setup).

T1 sequence (P43220 24-463): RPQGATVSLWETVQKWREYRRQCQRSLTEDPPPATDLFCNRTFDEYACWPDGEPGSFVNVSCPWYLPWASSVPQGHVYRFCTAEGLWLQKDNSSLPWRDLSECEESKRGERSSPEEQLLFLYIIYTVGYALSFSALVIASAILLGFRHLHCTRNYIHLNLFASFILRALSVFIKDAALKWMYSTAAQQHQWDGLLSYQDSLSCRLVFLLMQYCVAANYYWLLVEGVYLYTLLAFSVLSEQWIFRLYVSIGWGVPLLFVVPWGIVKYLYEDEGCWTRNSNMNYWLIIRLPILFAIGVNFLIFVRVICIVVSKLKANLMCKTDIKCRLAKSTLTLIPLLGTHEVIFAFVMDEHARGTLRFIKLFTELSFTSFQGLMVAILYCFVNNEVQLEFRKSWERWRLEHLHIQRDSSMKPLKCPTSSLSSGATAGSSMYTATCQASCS
T2 sequence (P43220 24-463 L260F): as the sequence (P43220 24-463) above, with L237F counted along it

O=C(O)c1ccc2nc(CN3CCN(c4cccc(OCc5ccc(Cl)cc5F)n4)[C@@H]4COC[C@@H]43)n(Cc3cocn3)c2c1 (single isomer, unassigned) [Example 20]
EC50 (GLP-1R): 37 nM | EC50 (human GLP-1R receptor): 35 nM

Cc1cc(Cn2c(CN3CCN(c4cccc(OCc5ccc(C#N)cc5F)n4)[C@@H]4CC[C@@H]43)nc3ccc(C(=O)O)cc32)no1 (racemic) [Example 13, rac-2-(((1R,6S)-5-(6-((4-Cyano-2-fluorobenzyl)oxy)pyridin-2-yl)-2,5-diazabicyclo[4.2.0]octan-2-yl)methyl)-1-((5-methylisoxazol-3-yl)methyl)-1H-benzo[d]imidazole-6-carboxylic acid]
EC50 (GLP-1R): 100 nM | EC50 (human GLP-1R receptor): 110 nM

Cn1ccc(Cn2c(CN3CCN(c4cccc(OCc5ccc(C#N)cc5F)n4)[C@@H]4CC[C@@H]43)nc3ccc(C(=O)O)cc32)n1 (racemic) [Example 1, rac-2-(((1R,6S)-5-(6-((4-Cyano-2-fluorobenzyl)oxy)pyridin-2-yl)-2,5-diazabicyclo[4.2.0]octan-2-yl)methyl)-1-((1-methyl-1H-pyrazol-3-yl)methyl)-1H-benzo[d]imidazole-6-carboxylic acid]
EC50 (GLP-1R): 280 nM | EC50 (human GLP-1R receptor): 130 nM

O=C(O)c1ccc2nc(CN3CCN(c4cccc(OCc5ccc(Cl)cc5F)n4)[C@@H]4COC[C@@H]43)n(C[C@@H]3CCO3)c2c1 (racemic) [Example 15, 2-(((4aRS,7aSR)-4-(6-((4-Chloro-2-fluorobenzyl)oxy)pyridin-2-yl)hexahydrofuro[3,4-b]pyrazin-1(2H)-yl)methyl)-1-(((S)-oxetan-2-yl)methyl)-1H-benzo[d]imidazole-6-carboxylic acid]
EC50 (GLP-1R): 14 nM | EC50 (human GLP-1R receptor): 3.3 nM

O=C(O)c1cc(Cl)c2nc(CN3CCN(c4cccc(OCc5ccc(Cl)cc5F)n4)[C@@H]4COC[C@@H]43)n(C[C@@H]3CCO3)c2c1 (single isomer, unassigned) [Example 22a, 4-Chloro-2-(((4aR*,7aS*)-4-(6-((4-chloro-2-fluorobenzyl)oxy)pyridin-2-yl)hexahydrofuro[3,4-b]pyrazin-1(2H)-yl)methyl)-1-(((S)-oxetan-2-yl)methyl)-1H-benzo[d]imidazole-6-carboxylic acid]
EC50 (GLP-1R): 6.6 nM | EC50 (human GLP-1R receptor): 1 nM

COc1cc(C(=O)O)cc2c1nc(CN1CCN(c3cccc(OCc4ccc(Cl)cc4F)n3)[C@@H]3COC[C@@H]31)n2C[C@@H]1CCO1 (single isomer, unassigned) [Example 16b, 2-(((4aR*,7aS*)-4-(6-((4-Chloro-2-fluorobenzyl)oxy)pyridin-2-yl)hexahydrofuro[3,4-b]pyrazin-1(2H)-yl)methyl)-4-methoxy-1-(((S)-oxetan-2-yl)methyl)-1H-benzo[d]imidazole-6-carboxylic acid]
EC50 (GLP-1R): 120 nM | EC50 (human GLP-1R receptor): 64 nM

N#Cc1ccc(COc2cccc(N3CCN(Cc4nc5cc(Cl)c(C(=O)O)cc5n4C[C@@H]4CCO4)[C@H]4CC[C@H]43)n2)c(F)c1 (single isomer, unassigned) [Example 7b]
EC50 (GLP-1R): 40 nM | EC50 (human GLP-1R receptor): 90 nM

O=C(O)c1cc(F)c2nc(CN3CCN(c4cccc(OCc5ccc(Cl)cc5F)n4)[C@@H]4COC[C@@H]43)n(C[C@H]3CCOC3)c2c1 (single isomer, unassigned) [Example 18b]
EC50 (GLP-1R): 15 nM | EC50 (human GLP-1R receptor): 57 nM

O=C(O)c1cc(F)c2nc(CN3CCN(c4cccc(OCc5ccc(Cl)cc5F)n4)[C@@H]4COC[C@@H]43)n(C[C@@H]3CCO3)c2c1 (single isomer, unassigned) [Example 19b, 2-(((4aR*,7aS*)-4-(6-((4-Chloro-2-fluorobenzyl)oxy)pyridin-2-yl)hexahydrofuro[3,4-b]pyrazin-1(2H)-yl)methyl)-4-fluoro-1-(((S)-oxetan-2-yl)methyl)-1H-benzo[d]imidazole-6-carboxylic acid]
EC50 (GLP-1R): 290 nM | EC50 (human GLP-1R receptor): 120 nM

O=C(O)c1cc(Cl)c2nc(CN3CCN(c4cccc(OCc5ccc(Cl)cc5F)n4)[C@@H]4COC[C@@H]43)n(C[C@@H]3CCO3)c2c1 (single isomer, unassigned) [Example 22b, 4-Chloro-2-(((4aR*,7aS*)-4-(6-((4-chloro-2-fluorobenzyl)oxy)pyridin-2-yl)hexahydrofuro[3,4-b]pyrazin-1(2H)-yl)methyl)-1-(((S)-oxetan-2-yl)methyl)-1H-benzo[d]imidazole-6-carboxylic acid]
EC50 (GLP-1R): 270 nM | EC50 (human GLP-1R receptor): 150 nM

N#Cc1ccc(COc2cccc(N3CCN(Cc4nc5c(Cl)cc(C(=O)O)cc5n4C[C@@H]4CCO4)[C@H]4CC[C@H]43)n2)c(F)c1 (single isomer, unassigned) [Example 6b]
EC50 (GLP-1R): 57 nM | EC50 (human GLP-1R receptor): 95 nM

N#Cc1ccc(COc2cccc(N3CCN(Cc4nc5ccc(C(=O)O)c(Cl)c5n4C[C@@H]4CCO4)[C@H]4CC[C@H]43)n2)c(F)c1 (single isomer, unassigned) [Example 8c]
EC50 (GLP-1R): 620 nM | EC50 (human GLP-1R receptor): 140 nM

Cc1nccn1CCn1c(CN2CCN(c3cccc(OCc4ccc(Cl)cc4F)n3)[C@@H]3COC[C@@H]32)nc2c(F)cc(C(=O)O)cc21 (single isomer, unassigned) [Example 23]
EC50 (GLP-1R): 110 nM | EC50 (human GLP-1R receptor): 170 nM

Cc1nccn1CCn1c(CN2CCN(c3cccc(OCc4ccc(Cl)cc4F)n3)[C@@H]3COC[C@@H]32)nc2ccc(C(=O)O)cc21 (single isomer, unassigned) [Example 25b]
EC50 (GLP-1R): 1100 nM | EC50 (human GLP-1R receptor): 250 nM
